Here are results for five compounds from patent US7250157B2, “Dermatological compositions and methods” (Applied Genetics Incorporated Dermatics, priority 1996, dated 2007).

Molecules are shown by their SMILES.

For series [1], the system named is Normal human epidermal melanocytes (NHEMs). In words: Melanin induction in normal human epidermal melanocytes. The format is cell-based. Here is the method:
Normal human epidermal melanocytes (NHEMs) were examined for induction of melanogenesis using cells and media from Clonetics Corporation (San Diego, Calif.). Cells were cultured exactly as specified by the supplier.

Series [2] concerns Cloudman S91 mouse melanoma cell line. In words: Melanin content of S91 cells after treatment with test compound. The format is cell-based. Here is the method:
The Cloudman S91 mouse melanoma cell line was obtained from American Type Culture Collection (ATCC). […] For testing propylene glycol and analogues for induction of melanogenesis, S91 cells were plated at 10^5 cells/35 mm dish in 10% calf serum. […] Cells were cultured for 6 days at 37° C. in 5% CO2 in a humidified incubator. Following this treatment period, cells were examined microscopically and the portion of dedifferentiated and differentiated cells was estimated.
Following this microscopic examination, cells were detached from dishes by trypsin. The time required for detachment by trypsin was recorded as an additional indicator of the phenotypic effects of test compounds. For each treatment, a subsample of cells was counted to determine the effects of treatment compounds on cellular proliferation. The remainder of cells were used for determination of melanin content. […] Absorbance of standards and samples was measured at 475 nm. Melanin was expressed as pg melanin/cell.

Series [3] deals with tyrosinase activity in S91 mouse melanoma cells. The series is described as follows: Induction of tyrosinase activity in S91 cells. To be noted: for Tyrosinase dpm/hr 10^3 Cells / Tyrosinase dpm/hr ug Protein: 300 mM PG-1,2, 25 mM 3,3-M-1,2-BD, 50 mM 1,2-cs-CPD, 5 mM 5-NBene-2,2-DM, 0.5 mM 2,3-Pyd, 0.1 mM IBMX, mean ±SE; for more tyrosinase activity than 5-norbornene-2,2-dimethanol: calculated from data in FIG. 5.
Experimental: Compounds were examined for their ability to induce tyrosinase activity in S91 mouse melanoma cells. […] Following treatments, cells were trypsinized, counted by Coulter, pelleted by centrifugation at 1000×g, and analyzed for tyrosinase activity using modifications of previously described procedures (Pomerantz, S. H., 1966, J. Biol. Chem. 241:161-168; Jara, et al., 1988, Pigment Cell Res. 1: 332-339.). Briefly, cell pellets were solubilized by sonicating for 5 seconds in 600 ul 50 mM phosphate buffer pH 6.8 containing 0.5% Triton-X100, followed by vortexing, incubation on ice for 30 min, and then revortexing. From this, 200 ul aliquots were combined with 200 ul of reaction mixture containing either 75 uM tyrosine, 75 uM L-Dopa, and 2 uCi L-[3,5-^3H]Tyrosine in 50 mM NaPO4 pH 6.8 (L-Dopa+), or, 75 uM tyrosine, and 2 uCi L-[3,5-^3H]Tyrosine in 50 mM NaPO4 pH 6.8 (L-Dopa−) and incubated 1 hr at 37° C. Reactions were stopped by addition of 400 ul 10% activated charcoal in 0.1N HCl and incubation on ice for 15 min. This mixture was centrifuged at 17,300×g for 5 min, and 400 ul supernatant was then filtered through a 0.22 uM GV Durapore centifugal filter unit (Millipore) by centrifuging at 17,300×g for 5 min. Filtrate was added to 4 ml Fisher Plus scintillation fluid and counted on a Hewlett Packard scintillation counter. Tyrosinase activity was calculated as dpm/hr/ug protein and dpm/hr/10^3 cells. Each sample was analyzed with and without L-Dopa, a necessary cofactor for tyrosinase (Pomerantz, S. H., 1966, J. Biol. Chem. 241:161-168; McLane, et al., 1987, Biochem. Biophys. Res. Commun. 145:719-725). All reported tyrosinase values are exclusive of counts that occurred in buffer blanks and L-dopa negative aliquots. Protein was determined on aliquots of cell lysate, extracellular particulate lysate or media by the Bradford Coomassie Blue method (Bradford, 1967, Anal. Biochem. 72:248-254) using Bio-Rad Protein Assay Kit I.

For series [4], the system named is American short-haired guinea pigs. In words: Topical melanogenesis (pigmentation rating) in guinea pigs. The format is in vivo, guinea pig. To be noted: for Pigmentation Rating Normalized to 1,2-PG / Pigmentation Rating Normalized to 1M / Pigmentation Rating Background Corrected / Pigmentation Rating: No Penetration Enhancer; for Pigmentation Rating Normalized to 1,2-PG / Pigmentation Rating Normalized to 1M / Pigmentation Rating Background Corrected: concentrations as E85; for Pigmentation Rating Background Corrected: corrected for Nair control; for Pigmentation Rating: sites c and d, 11.0M 2,3-M-2,3-BD, 11.3M 2-M-1,3-PG, 8.7M 1,2-cs-CPD, 4.0M 3,3-M-1,2-BD. The arrangement: Pigmentation Rating / Pigmentation Rating Background Corrected: scale not given here. The method, then: Compounds were tested for melanogenic activity in vivo by application to American short-haired guinea pigs. Treatment sites were created by removal of fur using Nair® brand depilatory. In the Table, the numbers presented are the relative melanogenesis rating (mean ±SE), and are arranged according to the relative location on the animal, with the head being to the left and the tail being to the right. Propylene glycol (PG=13.6M), 2,3-butanediol (2,3-BD=10.95M), and 1,2-cis-cyclopentanediol (1,2-cs-CPD=10.7M) were applied as full strength solutions. 3,3-dimethyl-1,2-butanediol (3,3-M-1,2-BD) was applied as a 4M solution dissolved in ethanol. Two weeks following cessation of treatments, the degree of pigmentation was subjectively rated according to the following scale:
In order to minimize the effects of dimunition of response from head to tails of animals, all future experiments were done using only treatment spots located towards the tails of animals (c and d in Table 7). Deemed as additionally beneficial, in this area of the animal differences of responsiveness to strong and weak inducers of pigmentation, as deduced from cell culture, were greatest. […] Pigmentation ratings were corrected for background (control treatment spots), normalized to 1M to account for the different amounts of each agent applied, and then normalized to results for 1,2-PG (Table 8). […] It is anticipated that further improvements in formulation will additionally improve responsiveness to 5-NBene-2,2-DM and other compounds in this invention.
In FIG. 5, a, b, c and d indicate treatment spots that transverse the anterior-posterior axis along the backs of guinea pigs.

For series [5], the system named is Cloudman S91 mouse melanoma cell line. In words: Cell count (proliferation, toxicity) of treated S91 cells. The format is cell-based. The note with it: for Cells (×10^6): 4 days, X ± SE, n = 3. The method, then:
The Cloudman S91 mouse melanoma cell line was obtained from American Type Culture Collection (ATCC). Cells were cultured in Dulbecco's Modified Eagles Medium (DMEM) containing 10% calf serum, 2 mM L-glutamine, 10 U Penicillin/ml and 10 ug Streptomycin/ml according to a previously published protocol (Eller, et al., Proc. Natl. Acad. Sci. 93:1087-92. 1996). For testing propylene glycol and analogues for induction of melanogenesis, S91 cells were plated at 10^5 cells/35 mm dish in 10% calf serum. One day after plating, media was removed and replaced with media containing 2% calf serum and test compounds (Eller, et al., 1996). Cells were cultured for 6 days at 37° C. in 5% CO2 in a humidified incubator. Following this treatment period, cells were examined microscopically and the portion of dedifferentiated and differentiated cells was estimated. Previous studies have shown that dedifferentiated S91 cells have a rounded, spindly appearance while differentiated S91 cells have a flattened, cuboidal, multipolar and dendritic appearance (Orlow, et al., Exp. Cell Res. 191:209-218, 1990).
Following this microscopic examination, cells were detached from dishes by trypsin. The time required for detachment by trypsin was recorded as an additional indicator of the phenotypic effects of test compounds. For each treatment, a subsample of cells was counted to determine the effects of treatment compounds on cellular proliferation. The remainder of cells were used for determination of melanin content. Melanin was extracted from cells by vortexing for 15 min in 1N NaOH. Standards were prepared by dissolving melanin (Sigma) in 1 N NaOH (Eller, et al., 1996). Absorbance of standards and samples was measured at 475 nm. Melanin was expressed as pg melanin/cell.

The subject of series [6] is nitric oxide in cell-free media from S91 cells. In words: Nitric oxide in cell-free media from S91 cells (Greiss reagent). To be noted: 4 days. The series is classed as cell-based, mouse. The method, then:
In a related experiment, nitric oxide was measured in cell-free media from S91 cells following treatment with a range of concentrations of 2,3-cis/exo-pinanediol or 5-norbornene-2,2-dimethanol for 4 days. In biological fluids, nitric oxide is converted into nitrite and nitrate with seconds of production. Therefore, nitric oxide is measured by first converting nitrate to nitrite using nitrate reductase, followed by addition of Greiss reagent to detect nitrite as optical density at 550 nm (Moshage, et al., 1995, Clin. Chem. 41:892-896; Schmidt, et al., 1995, Biochemica 2:22)). […] Moreover, the relative melanogenic potency of 2,3-cis/exo-pinanediol and 5-norbornene-2,2-dimethanol shown in FIG. 5 paralleled the relative potency of these compounds with regards to induction of nitric oxide (Table 17). […] It follows that measurement of induction of nitric oxide, cGMP or PKG may provide biochemically relevant screening assays for compounds that may be melanogenic. Thus, the utilization of these assays to screen compounds for melanogenic activity is claimed in the present invention.

Where [7] appears, read: spot a (anterior), 8.7M 1,2-cis-CPD in 20% ETOH, 1M 5-NBene-2,2-DM in 8.5 M propylene glycol, 2% 2-pyrrolidone, 20% ETOH, 1M 2,3-cs/ex PD in 50% ETOH.
Where [8] appears, read: spot d (posterior), formulations as E220.
Where [9] appears, read: range of concentrations up to a toxic dose.

Consider `O[C@@H]1CCC[C@@H]1O` [1,2-cs-CPD, 1,2-cis-cyclopentanediol], for which the “Concentration Required for ≧1.5-fold Melanin Induction in NHEMs” value in series [1] came out at 50 mM. For the same compound, the “Concentration Required for ≧2-fold Melanin Induction in S91 Cells” value in series [2] is recorded as 10 mM. For the same compound, in series [3], the “Tyrosinase dpm/hr 10^3 Cells” value was 276 ± 16 dpm/hr/10^3 Cells and the “Tyrosinase dpm/hr ug Protein” value is recorded as 925 ± 53 dpm/hr/ug Protein. In series [4], the “Pigmentation Rating Normalized to 1,2-PG” value stood at 13.5 ± 1.9, the “Pigmentation Rating Normalized to 1M” value was 0.202 ± 0.029 and the “Pigmentation Rating Background Corrected” value is recorded as 1.75 ± 0.25. Besides, in series [4] (13.61M 1,2-PG), the “Pigmentation Rating” value amounted to 1.89 ± 0.27. Further, in series [4] (guinea pig, 5 days), the “greater melanogenesis than PG applied at similar body locations” value is 5.5 fold. The “relative melanogenesis rating (mean ±SE), scale 0-4” value in series [4] (site d (tail), 25 μl twice per day for 5 days, rated two weeks after, full strength solutions) is listed as 1.83 ± 0.33^2. The “Pigmentation Ratings (X ± SE; n = 6; scale 0 to +4)” value in series [4] (setting [7]) is reported as 1.83 ± 0.17. Further, in series [4] (spot b, formulations as E220), the “Pigmentation Ratings (X ± SE; n = 6; scale 0 to +4)” value is 1.92 ± 0.43. For the same compound, the “Pigmentation Ratings (X ± SE; n = 6; scale 0 to +4)” value in series [4] (spot c, formulations as E220) was 1.92 ± 0.20. In addition, the “Pigmentation Ratings (X ± SE; n = 6; scale 0 to +4)” value in series [4] (setting [8]) is 1.58 ± 0.24.
On to `O=C[C@H](O)[C@H](O)[C@H](O)CO` [D-ribose], for which, in series [1] (setting [9]), the “melanin induction in NHEMs (in words)” value is “inactive”. Also, in series [2] (setting [9]), the “melanogenesis in S91 cells (≧2-fold increase = significant)” value is “did not induce significant (≧2-fold increase) melanogenesis”.
For the compound `Oc1cccnc1O` [2,3-Pyridinediol, 2,3-pyridinediol], the “Concentration Required for ≧1.5-fold Melanin Induction in NHEMs” value in series [1] stood at 0.2 mM. Further, in series [5] (levels higher than 500 uM), the “toxicity to S91 cells” value is on record as “toxic”. Further, the “Concentration Required for ≧2-fold Melanin Induction in S91 Cells” value in series [2] was determined as 0.1 mM. In series [3], the “Tyrosinase dpm/hr 10^3 Cells” value is listed as 142 ± 8 dpm/hr/10^3 Cells and the “Tyrosinase dpm/hr ug Protein” value was 160 ± 19 dpm/hr/ug Protein.
As for `CC1(C)[C@@H]2C[C@H]1[C@@](C)(O)[C@@H](O)C2` (relative stereo) [2,3-cs/ex-PD, 2,3-cis/exo-pinanediol ([1R,2R,3S,5R]-[−]-pinanediol)], the “Cells (×10^6)” value is 0.325 ± 0.002 ×10^6 in series [5] (0.5 mM), 0.258 ± 0.010 ×10^6 in series [5] (1 mM), 0.099 ± 0.014 ×10^6 in series [5] (2.5 mM) and 0.064 ± 0.006 ×10^6 in series [5] (5 mM). For the same compound, the “nmoles NO/10^6 Cells” value is reported as 10.9 ± 0.2 nmoles NO/10^6 Cells in series [6] (0.5 mM), 24.5 ± 5.4 nmoles NO/10^6 Cells in series [6] (1 mM), 131 ± 15 nmoles NO/10^6 Cells in series [6] (2.5 mM) and 174 ± 15 nmoles NO/10^6 Cells in series [6] (5 mM). Also, the “uM NO” value in series [6] (0.5 mM) amounted to 3.54 ± 0.06 µM; in series [6] (1 mM), 6.36 ± 1.56 µM; in series [6] (2.5 mM), 12.6 ± 0.5 µM; in series [6] (5 mM), 11.0 ± 1.1 µM. The “Fold Induction of Tyrosinase Relative to Controls” value is on record as 5.1X in series [3] (0.5 mM (Table 19)), 17.6X in series [3] (1 mM (Table 19)), 119X in series [3] (2.5 mM (Table 19)) and 50.6X in series [3] (5 mM (Table 19)). For the same compound, the “more tyrosinase activity than 5-norbornene-2,2-dimethanol” value is on record as 2.6 fold in series [3] (500 uM), 5.2 fold in series [3] (1 mM) and 7.3 fold in series [3] (2.5 mM). Further, the “relative melanogenic potency in S91 cells (in words)” value in series [3] (Table 19 data) was “only slightly more potent than (1S, 2S, 3R, 5S)-(+)-pinanediol”. Besides, the “Pigmentation Ratings (X ± SE; n = 6; scale 0 to +4)” value in series [4] (setting [7]) was 2.00 ± 0.20; in series [4] (spot b, formulations as E220) it was 1.75 ± 0.17; in series [4] (spot c, formulations as E220), 1.75 ± 0.17; in series [4] (setting [8]), 1.04 ± 0.32.
With `CC(C)(O)C(C)(C)O` [2,3-M-2,3-BD, 2,3-dimethyl-2,3-butanediol], the “Concentration Required for ≧1.5-fold Melanin Induction in NHEMs” value in series [1] was 50 mM. Besides, the “Concentration Required for ≧2-fold Melanin Induction in S91 Cells” value in series [2] was 25 mM. In series [4], the “Pigmentation Rating Normalized to 1,2-PG” value is given as 1.0 ± 0.6, the “Pigmentation Rating Normalized to 1M” value is 0.015 ± 0.008 and the “Pigmentation Rating Background Corrected” value was 0.17 ± 0.09. Also, the “Pigmentation Rating” value in series [4] (13.61M 1,2-PG) is given as 0.25 ± 0.14. Further, in series [4] (sites towards tail, 13.61M 1,2-PG, 10.6M 1,2-PG/2% 2P, 11M 2,3-dimethyl-2,3-butanediol), the “pigmentation response versus control (Nair or 2% 2P treated) spots” value was “not significantly different from control”.
